Converted amounts (≈) assume the structure as drawn.
Legend:
[1] = test system: B. subtilis (WB800N strain); experiment: Bacterial growth inhibition assay, B. subtilis; assay type: cell-based, Bacillus subtilis; details: for inhibition at 100 µM: Bacillus subtilis, 8 h, read-out: Growth Inhibition at 100 μM (8 h) B. subtilis
Text: (§1) To avoid the characterization of hit compounds lacking antibacterial activity, we subsequently tested the ability of the 18 ELISA-validated compounds to inhibit bacterial growth, using the previously identified indol-3-yl-urea derivative 4 as a reference. Two nonpathogenic bacteria were employed for this assay: the gram-positive B. subtilis (WB800N strain) and the gram-negative E. coli (DH10T1R strain). […] The remaining twelve compounds might have been unable to cross the bacterial membrane or were modified and/or extruded from the cell. […] This additional assay, which was conducted on a wild-type (W303) rather than on the hyperpermeable Δerg6 strain, is not part of our streamlined antibiotic discovery workflow and was only aimed at verifying the cytotoxicity prediction reliability of yBRET.
(§2) Growth inhibition tests and minimum inhibitory concentration (MIC) assay on the gram-positive B. subtilis WB800N strain (nprE aprE epr bpr mpr::ble nprB::bsr Δvpr wprA::hyg cm::neo; NeoR) (MoBiTec GmbH, Lotzestraße, Göttingen, Germany) and on the gram-negative nonpathogenic E. coli DH10 T1R strain (F-mcrA Δ(mrr-hsdRMS-mcrBC) Φ80lacZ ΔM15 ΔlacX74 recA1 endA1 araD139Δ(ara, leu)7697 galU galK λ-rpsL nupG) (Invitrogen, Waltham, MA, USA) were performed as described in Sartini et al..
(§3) For growth inhibition assays, bacteria were grown to exponential phase (OD600 = 0.5–0.6) and then diluted 100-fold with LB. PMBN (2 μg/mL) for E. coli was added at this stage. Yeast strain W303-1A (leu2-3,112 trp1-1 can1-100 ura3-1 ade2-1 his3-11,15) was grown at 30 °C in YPD to an OD600 of 0.5. The growth of the bacterial (or yeast) cells was monitored for 8 h in the presence of the candidate compounds dissolved in DMSO (final concentration of 5%) or an equivalent amount of DMSO as a negative control (“vehicle”). Growth inhibition assays were conducted in triplicate in 96-well plates (Microtest Plate 96 Well, F, flat base, Sarstedt, Nümbrecht, North Rhine-Westphalia, Germany) by monitoring cell growth (OD600) every 30 min with a microplate reader (TriStar^2 LB 942; Berthold Technologies, Bad Wildbad, Baden-Württemberg, Germany) for bacteria and every 1 h for yeast.

E. coli (DH10T1R strain) = experiment: Bacterial growth inhibition assay, E. coli; assay type: cell-based, Escherichia coli; details: for inhibition at 100 µM: 8 h, in the presence of PMBN (2 μg/mL)
Text: as §1, §2, §3

[2] = test system: Saccharomyces cerevisiae (W303); experiment: Yeast growth inhibition assay; assay type: cell-based; details: wild-type W303
Text: as §1, §3

B. subtilis WB800N = experiment: MIC assay, B. subtilis; assay type: cell-based, Bacillus subtilis; details: for MIC: Bacillus subtilis, WB800N
Procedure: as §2
(§4) Antimicrobial activity was determined by means of the minimum inhibitory concentration (MIC) assay, according to the Clinical & Laboratory Standards Institute (CLSI) guidelines described in ([37]). The assays were performed in 96-well microplates in 20% MH broth in PBS. A 2.5 × 10^5 CFU/mL medium-phase bacterial suspension in 20% MH broth was used and the microplates were incubated at 37 °C for 24 h. […] The results were derived from at least three independent experiments conducted in duplicate.

E. coli DH10T1R = experiment: MIC assay, E. coli; assay type: cell-based, Escherichia coli; details: in the presence of PMBN (2 μg/mL)
Procedure: as §2, §4

[3] = target: T1, β′–σ^70 PPI (GST-β′ aa 1–334 / His-tagged σ^70) (Escherichia coli, UniProt P0A8T7); experiment: Competitive ELISA of β′–σ^70 interaction; assay type: binding, E. coli; details: for IC50: read-out: Binding Inhibition IC50 ± SD; for inhibition at 100 µM: fixed concentration of 100 μM, read-out: β′–σ70 binding inhibition, ELISA 100 μM (percentage inhibition ± SD)
T1 construct: 50 nM GST-β′ (aa 1–334); made in house; host or cells: bacterial expression (pET28-b / pGEX4-T3 vectors)
T1 sequence (P0A8T7 1-334): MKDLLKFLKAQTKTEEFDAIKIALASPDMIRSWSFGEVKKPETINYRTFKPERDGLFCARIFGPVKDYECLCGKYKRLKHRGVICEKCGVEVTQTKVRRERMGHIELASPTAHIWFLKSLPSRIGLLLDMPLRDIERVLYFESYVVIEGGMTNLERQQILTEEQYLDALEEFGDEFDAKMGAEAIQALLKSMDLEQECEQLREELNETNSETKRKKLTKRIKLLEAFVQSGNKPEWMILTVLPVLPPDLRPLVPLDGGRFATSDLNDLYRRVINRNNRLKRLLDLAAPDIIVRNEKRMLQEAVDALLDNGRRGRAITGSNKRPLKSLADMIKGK
Procedure: In this in vitro set-up, individual candidate molecules (each at 100 µM concentration) were incubated with β’ before the addition of σ^70 and assessment of interaction reconstitution with an antibody directed against the σ^70 fusion tag. Eighteen of the 28 yBRET-positive compounds were thus confirmed as true inhibitors of the β’–σ^70 PPI (i.e., they inhibited the interaction by at least 50%); their structures and percentage inhibition values are reported in Table S1.
The production of recombinant proteins, the standard ELISA, and the “reverse” ELISA were performed following the protocols described in Sartini et al.. The full-length sequence coding for E. coli σ^70 was cloned into a modified pET28-b in-frame with an N-terminal 6xHis tag-sequence and was expressed in LB medium for 3 h at 30 °C following addition of 1 mM isopropyl-β-D-thiogalactopyranoside (IPTG).
The RNAP β’ 1–334 aa. coding sequence was cloned into a modified pGEX4-T3 expression vector (Amersham Biosciences, Amersham, Buckinghamshire, England) and was expressed for 24 h at 20 °C under auto-induction conditions (Auto Induction Medium, AIM-LB broth base; ForMedium™, Swaffham, Norfolk, England). Due to the failure of affinity purification on a glutathione-Sepharose column, the unfractionated whole cell supernatant was used directly as a GST-tagged source for ELISA.
For the standard ELISA, His-tagged- σ^70 was diluted to 250 nM with PBS and 100 μL of the resulting solution was added to the wells of SpectraPlate-96 HB microtitre plates (PerkinElmer, Waltham, MA, USA). After an overnight incubation at 4 °C, the wells were washed with PBS and blocked at room temperature for 2 h with 400 μL of 1% (w/v) BSA dissolved in PBS. Subsequently, 100 μL of supernatant diluted in PBS containing 50 nM GST-β′ (aa 1–334) was incubated for 10 min at 37 °C with 2.5 μL of each compound dissolved in DMSO at different concentrations (or with 2.5 μL of DMSO). The addition first of the polyclonal rabbit anti-GST primary antibody (1:2000 in PBS) (Abcam, Cambridge, Cambridgeshire, England) and after incubation, of the horseradish peroxidase-conjugated goat anti-rabbit secondary antibody diluted 1:20,000 in PBS (Invitrogen™ by Life Technologies™, Carlsbad, CA, USA) allowed the detection of the interaction using the substrate for 2,2’-Azino-bis (3-Ethylbenzthiazoline-6-Sulphonic Acid) peroxidase (ABTS; SeraCare Life Sciences, Milford, MA, USA). The signal resulting from the oxidation of ABTS was determined by measuring the absorbance at 415 nm with a microplate reader (iMark™ Microplate Absorbance Reader; Bio-Rad, Hercules, CA, USA).

[4] = target: T2, E. coli RNAPc with recombinant σ^70 (holoenzyme) (Escherichia coli, UniProt P0A8T7); experiment: Fluorescence-detected single-round in vitro transcription assay; assay type: biochemical; details: fluorescence-based assay
T2 construct: purchased New England BioLabs
T2 sequence (P0A8T7 whole entry): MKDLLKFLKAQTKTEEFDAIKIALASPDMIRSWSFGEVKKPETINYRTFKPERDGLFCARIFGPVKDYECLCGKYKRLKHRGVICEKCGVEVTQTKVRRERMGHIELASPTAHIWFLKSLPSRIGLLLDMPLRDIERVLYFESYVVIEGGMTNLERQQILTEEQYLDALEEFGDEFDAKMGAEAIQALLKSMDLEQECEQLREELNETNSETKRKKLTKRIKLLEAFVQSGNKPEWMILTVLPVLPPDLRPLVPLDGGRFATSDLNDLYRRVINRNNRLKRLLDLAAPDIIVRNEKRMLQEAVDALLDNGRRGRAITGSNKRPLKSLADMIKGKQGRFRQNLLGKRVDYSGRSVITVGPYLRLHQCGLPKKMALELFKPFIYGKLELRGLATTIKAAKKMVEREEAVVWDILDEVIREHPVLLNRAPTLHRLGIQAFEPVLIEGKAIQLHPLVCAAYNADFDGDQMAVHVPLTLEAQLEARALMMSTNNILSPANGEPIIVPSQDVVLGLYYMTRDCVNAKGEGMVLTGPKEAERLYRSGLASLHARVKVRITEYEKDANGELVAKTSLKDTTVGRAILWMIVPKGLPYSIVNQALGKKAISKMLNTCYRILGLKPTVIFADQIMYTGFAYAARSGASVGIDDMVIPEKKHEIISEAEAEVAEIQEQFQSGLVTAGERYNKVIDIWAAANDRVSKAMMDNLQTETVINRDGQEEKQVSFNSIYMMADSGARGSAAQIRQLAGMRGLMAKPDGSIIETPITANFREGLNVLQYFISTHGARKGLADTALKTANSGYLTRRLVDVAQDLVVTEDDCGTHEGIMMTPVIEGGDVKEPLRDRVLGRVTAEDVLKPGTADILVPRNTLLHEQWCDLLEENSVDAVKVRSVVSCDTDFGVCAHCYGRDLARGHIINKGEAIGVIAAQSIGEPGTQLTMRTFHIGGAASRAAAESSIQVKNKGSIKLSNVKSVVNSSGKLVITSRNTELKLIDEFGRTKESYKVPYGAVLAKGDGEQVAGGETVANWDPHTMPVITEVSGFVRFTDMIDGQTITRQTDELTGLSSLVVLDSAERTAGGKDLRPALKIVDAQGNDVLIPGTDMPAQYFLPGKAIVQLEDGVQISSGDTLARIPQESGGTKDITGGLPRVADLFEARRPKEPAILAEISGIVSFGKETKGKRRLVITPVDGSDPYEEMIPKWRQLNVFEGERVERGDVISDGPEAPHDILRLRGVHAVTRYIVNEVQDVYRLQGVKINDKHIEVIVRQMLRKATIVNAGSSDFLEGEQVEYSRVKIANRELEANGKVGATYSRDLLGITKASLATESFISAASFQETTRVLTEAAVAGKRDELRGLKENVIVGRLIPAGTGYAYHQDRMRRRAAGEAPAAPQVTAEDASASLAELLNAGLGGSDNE
T2 sequence (P0A8V2 whole entry partner): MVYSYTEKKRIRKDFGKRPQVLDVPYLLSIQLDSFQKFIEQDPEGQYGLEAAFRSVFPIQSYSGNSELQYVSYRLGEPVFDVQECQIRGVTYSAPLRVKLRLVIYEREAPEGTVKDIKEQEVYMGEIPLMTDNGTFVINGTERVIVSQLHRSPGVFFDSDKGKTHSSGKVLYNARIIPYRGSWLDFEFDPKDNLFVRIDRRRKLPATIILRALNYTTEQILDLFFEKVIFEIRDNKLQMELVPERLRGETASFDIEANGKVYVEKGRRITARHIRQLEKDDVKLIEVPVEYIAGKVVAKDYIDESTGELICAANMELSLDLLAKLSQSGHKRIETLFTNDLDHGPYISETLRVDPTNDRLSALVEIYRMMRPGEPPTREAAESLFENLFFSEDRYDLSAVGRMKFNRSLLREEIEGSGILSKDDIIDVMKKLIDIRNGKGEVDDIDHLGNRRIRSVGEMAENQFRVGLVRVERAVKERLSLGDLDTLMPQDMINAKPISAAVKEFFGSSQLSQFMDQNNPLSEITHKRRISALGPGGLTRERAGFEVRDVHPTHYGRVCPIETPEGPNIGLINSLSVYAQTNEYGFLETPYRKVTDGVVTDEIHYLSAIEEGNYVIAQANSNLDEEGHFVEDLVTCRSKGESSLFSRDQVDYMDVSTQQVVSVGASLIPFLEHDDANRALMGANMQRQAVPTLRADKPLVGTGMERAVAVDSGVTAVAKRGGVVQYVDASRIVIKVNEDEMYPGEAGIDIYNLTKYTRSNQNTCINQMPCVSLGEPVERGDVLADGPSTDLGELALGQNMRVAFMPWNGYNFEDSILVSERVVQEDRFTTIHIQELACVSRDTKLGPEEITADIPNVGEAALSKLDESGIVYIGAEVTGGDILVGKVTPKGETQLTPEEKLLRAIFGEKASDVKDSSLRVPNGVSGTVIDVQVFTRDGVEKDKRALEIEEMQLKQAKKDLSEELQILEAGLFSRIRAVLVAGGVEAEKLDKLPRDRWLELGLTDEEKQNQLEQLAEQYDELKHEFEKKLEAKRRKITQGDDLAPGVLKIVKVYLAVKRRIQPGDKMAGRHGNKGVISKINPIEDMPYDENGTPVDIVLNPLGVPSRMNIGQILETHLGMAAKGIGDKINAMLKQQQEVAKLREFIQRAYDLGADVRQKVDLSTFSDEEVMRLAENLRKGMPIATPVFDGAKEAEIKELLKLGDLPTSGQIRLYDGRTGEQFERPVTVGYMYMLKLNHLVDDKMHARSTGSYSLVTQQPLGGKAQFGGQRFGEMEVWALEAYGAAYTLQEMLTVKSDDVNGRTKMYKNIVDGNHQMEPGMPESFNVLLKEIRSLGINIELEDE
T2 sequence (P0A7Z4 whole entry partner): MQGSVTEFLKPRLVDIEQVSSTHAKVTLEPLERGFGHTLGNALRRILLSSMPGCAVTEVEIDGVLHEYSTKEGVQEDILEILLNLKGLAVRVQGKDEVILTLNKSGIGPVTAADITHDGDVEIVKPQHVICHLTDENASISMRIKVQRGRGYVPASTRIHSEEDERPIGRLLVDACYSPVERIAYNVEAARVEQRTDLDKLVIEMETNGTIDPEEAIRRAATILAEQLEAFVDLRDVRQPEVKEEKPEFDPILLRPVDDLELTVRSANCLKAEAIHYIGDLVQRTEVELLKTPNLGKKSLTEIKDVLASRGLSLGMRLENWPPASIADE
T2 sequence (P0A800 whole entry partner): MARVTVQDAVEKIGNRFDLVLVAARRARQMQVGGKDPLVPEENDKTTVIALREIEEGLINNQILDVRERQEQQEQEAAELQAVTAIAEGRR
Procedure: A single-round transcription assay was first performed at a fixed, 100 µM concentration.
A fluorescence-detected RNAP inhibition assay with the profluorescent substrate γ-[2′(2-benzothiazoyl)-6′-hydroxybenzothiazole)-ATP (γ-BBT-ATP, Jena Bioscience, Jena, Thuringia, Germany) was performed to verify the ability of the selected compounds to inhibit the specific transcription activity of bacterial RNA polymerase, using E. coli RNAPc (New England BioLabs, Ipswich, MA, USA) and recombinant His-tagged-σ^70 for holoenzyme reconstitution.
Two nM of a circular DNA template (pDSP) [38] were then added to a final volume of 7 µL and the resulting reaction mixture was incubated at 37 °C for 15 min. The pDSP template is a 6135 bp vector harboring two identical λpR promoters upstream of engineered, cytosine-lacking (C-less) DNA regions. When CTP is omitted from the reaction mixture, transcription reinitiation is prevented, and this allows for the single-round transcription of 24 nt and 70 nt long RNAs. […]
Ten µL of the reaction was transferred to a black 384-well plate (PE384fw_ProxiPlate) and fluorescence emission was read with Spark 10M, Tecan (Männedorf, canton of Zürich, Switzerland) (excitation wavelength 422 nm; emission wavelength 590 nm).

β′ subunit (RNAP) = test system: β′ subunit (RNAP); design: method as in PMID 26764017, PMID 23751807; details: cited from earlier work

Row | SMILES | inhibition at 100 µM [1] [%] | Duration of antibacterial activity, E. coli (E. coli (DH10T1R strain); 50 µM) [h] | E. coli growth inhibition over time (E. coli (DH10T1R strain); 50 µM) | inhibition at 10 µM (E. coli (DH10T1R strain); Escherichia coli, 10 µM, 8 h observation, with PMBN, read-out: E. coli growth inhibition at lowest concentration) [%] | inhibition at 100 µM (E. coli (DH10T1R strain); Escherichia coli) [%] | Growth Inhibition at 100 μM (8 h) S. cerevisiae [2] [%] | MIC B. subtilis (B. subtilis WB800N) | MIC (B. subtilis WB800N) [µM] | MIC E. coli (E. coli DH10T1R) [µM] | IC50 ([3]; dose–response ELISA) [µM] | inhibition at 100 µM [3] [%] | B. subtilis growth inhibition ([1]; concentrations ≤ 100 µM) | E. coli growth inhibition (E. coli (DH10T1R strain); concentrations ≤ 100 µM) | IC50 [4] [µM] | B. subtilis growth inhibition over time ([1]; 50 µM) | Duration of antibacterial activity, B. subtilis ([1]; 50 µM) [h] | B. subtilis growth inhibition over time ([1]; only at 100 µM) | Fold less potent than reference compound 4 (binding inhibition IC50) ([3]; dose–response ELISA) [fold] | Concentration interfering with in vitro transcription initiation (β′ subunit (RNAP))
1 | N#Cc1cc2cnccc2c2[nH]c3ncc(F)cc3c12 [Compound 7] | 13 | 4 | almost completely inhibited | 38 | 66 | 7 | did not inhibit B. subtilis growth | > 100 | 0.78 | 8.56 ± 1.82 | 86 ± 9 |  |  |  |  |  |  |  | 
2 | COc1ccc(-c2ccc(-c3oc4cc(OC(C)=O)ccc4c3OC(C)=O)cc2)cc1OC [Compound 9] | 24 |  |  |  | 24 | 0 |  | > 100 | >100 | 13.9 ± 1.86 | 100 | failed to exert any appreciable inhibitory activity | failed to exert any appreciable inhibitory activity | 71 ± 2.46 |  |  |  |  | 
3 | O=C(CSc1nc2ccccc2[nH]1)c1ccc2[nH]c3ncc(Cl)cc3c2c1 [Compound 19] | 37 |  |  |  | 0 | 0 |  | 100 (≈ 39.3 µg/mL) | >100 | 40 ± 4.2 | 94 ± 1 |  |  | 25.7 ± 1.85 | almost completely inhibited | 4 | significantly inhibited | 5 | 
4 | COc1cc(OC)c2c(-c3ccc(Cl)cc3)c[nH]c2c1C(=O)NNC(=O)c1c(OC)cc(OC)c2c(-c3ccc(Cl)cc3)c[nH]c12 [GKL003] |  |  |  |  |  |  |  |  |  |  |  |  |  |  |  |  |  |  | nanomolar concentrations

— article PMC9598883, “An Optimized Workflow for the Discovery of New Antimicrobial Compounds Targeting Bacterial RNA Polymerase Complex Formation” (Antibiotics, 2022)
